Tested on: Hematopoietic progenitor cells from normal bone marrow and cord blood
Assay: Clonogenic (colony) assays of hematopoietic progenitor cells in methylcellulose (CFU-MIX, BFU-e, CFU-GM)
Assay type: cell-based, human
Conditions: hCG preparations 200 IU/ml, subunits and peptides 100 μg/ml, 10 days, aggregates of more than 50 cells counted
Description: Hematopoietic progenitor cells (2×10^5 cell/ml) were isolated from normal bone marrow and cord blood and seeded in methylcellulose. […] Aggregates containing more than 50 cells after 10 days of culture were counted as colonies.

| Molecule | growth of hematopoietic progenitors (pro-hematopoietic activity, colony numbers) | growth of hematopoietic progenitors (pro-hematopoietic activity, colony numbers) (listed as whole β-chain) |
| --- | --- | --- |
| α-hCG peptide 88-92: α-hCG peptide of amino acids 88-92 (YYHKS; UniProt P01215 112-116, looked up, fragment) | little or no effects |  |
| β-hCG peptide 7-40: β-hCG peptide of amino acids 7-40 (PRCRPINATLAVEKEGCPVCITVNTTICAGYCPT; UniProt P0DN86 27-60, looked up, fragment) | little or no effects |  |
| β-hCG peptide 34-49: β-hCG peptide of amino acids 34-49 (CAGYCPTMTRVLQGVL; UniProt P0DN86 54-69, looked up, fragment) | little or no effects |  |
| β-hCG peptide 38-57: β-hCG peptide of amino acids 38-57 (CPTMTRVLQGVLPALPQVVC; UniProt P0DN86 58-77, looked up, fragment) | little or no effects |  |
| β-hCG peptide 57-93: β-hCG peptide of amino acids 57-93 (CNYRDVRFESIRLPGCPRGVNPVVSYAVALSCQCALC; UniProt P0DN86 77-113, looked up, fragment) | little or no effects |  |
| β-hCG peptide 74-95: β-hCG peptide of amino acids 74-95 | little or no effects |  |
| β-hCG peptide 100-110: β-hCG peptide of amino acids 100-110 (CGGPKDHPLTC; UniProt P0DN86 120-130, looked up, fragment) | little or no effects |  |
| partially purified native β-chain: crude preparation of native β-hCG (protein, UniProt P0DN86 21-165, looked up, native, partially purified, crude preparation of native β-hCG) Choriogonadotropin subunit …: SKEPLRPRCRPINATLAVEKEGCPVCITVNTTICAGYCPTMTRVLQGVLPALPQVVCNYRDVRFESIRLPGCPRGVNPVVSYAVALSCQCALCRRSTTDCGGPKDHPLTCDDPRFQDSSSSKAPPPSLPSPSRLPGPSDTPILPQ | directly promoted | considerable pro-hematopoietic activity |

From patent publication US5968513A (priority 1996, dated 1999)
